The values that follow come from patent US12227509B2, “Dihydropyrazolopyrazinone derivative having MGAT2 inhibitory activity” (Shionogi & Co., Ltd., priority 2019, dated 2025).

For the assay, the target named is recombinant human MGAT2 (Homo sapiens (Human), UniProt Q3SYC2). As to the kind of experiment: Measurement of human MGAT2 inhibitory activity. Format: biochemical. The settings on record: concentration exhibiting 50% enzyme inhibition; recombinant human MGAT2, 2-Oleoylglycerol/Oleoyl-CoA. The method, then: A full-length human MGAT2 gene to which a Flag-tag had been added at the N-terminal was inserted into pFastBac (from Invitrogen). A recombinant baculovirus was produced in accordance with the protocol for a Bac-to-Bac baculovirus expression system (produced by Invitrogen), and Sf-9 cells were infected therewith. The cells were collected and sonicated, and then the membrane fraction was collected through centrifugation. Western blotting analysis with an anti-Flag antibody was performed for the membrane fraction to confirm expression, and the membrane fraction was used as a recombinant human MGAT2 enzyme solution.
Chain of recombinant human MGAT2 (Q3SYC2 whole entry): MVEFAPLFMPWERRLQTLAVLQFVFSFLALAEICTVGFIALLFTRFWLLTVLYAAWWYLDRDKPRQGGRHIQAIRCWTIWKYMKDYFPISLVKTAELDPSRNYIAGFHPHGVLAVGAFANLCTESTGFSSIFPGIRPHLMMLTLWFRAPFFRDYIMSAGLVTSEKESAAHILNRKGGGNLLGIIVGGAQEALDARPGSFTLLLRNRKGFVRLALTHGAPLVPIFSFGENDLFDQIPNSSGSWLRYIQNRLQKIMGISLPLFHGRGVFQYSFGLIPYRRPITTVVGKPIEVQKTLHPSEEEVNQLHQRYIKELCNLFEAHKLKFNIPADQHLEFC
Solutions of the compounds of the present invention in DMSO were each aliquoted into 0.2-μL portions in a 384-well polystyrene microplate produced by Corning Incorporated, and 5 μL of an enzyme solution prepared with an assay buffer (100 mmol/L phosphate buffer (pH 7.4) containing 2 mmol/L DTT) and 5 μL of a substrate solution (100 mmol/L phosphate buffer (pH 7.4), 30 μmol/L 2-Oleoylglycerol, 10 μmol/L Oleoyl-CoA) were added thereto, and the resultant was stirred and centrifuged, and incubated in a moist chamber at room temperature for 1 hour. After enzymatic reaction, 50 μL of a quenching solution (containing 0.2 μmol/L Diolein-d5, 0.4% formic acid, and 50% isopropanol) containing Internal Standard (IS) was added to terminate the reaction, and the resultant was sealed in a plate produced by Shimadzu GLC Ltd., and then stirred and centrifuged, and measurement was performed by using an electrospray ionization method with a RapidFire360 and Agilent 6550 Q-TOF mass spectrometer. Diolein as a reaction product (P) of 2-Oleoylglycerol as the substrate and an ammonium adduct ion of the IS were detected, and the peak intensity ratio, P/IS, was calculated from the peak heights to evaluate the inhibitory activity. Inhibitory activities with/without addition of enzyme were defined as Control (+)/Control (−), respectively, and the respective % inhibitions were defined as 0% inhibition and 100% inhibition. The inhibitory activity was calculated from formula below with TIBCO Spotfire (produced by TIBCO Software Inc.)
Inhibitory activity (%)=[1−{Sample−Control (−)}/{Control (+)−Control (−)}]*100 where Sample indicates a peak intensity ratio: P/IS, when the compound of the present invention was added.
As to `Cc1cccc(-c2nn3c(c2NC(=O)CS(C)(=O)=O)C(=O)N[C@@]2(CCc4cc(OCC(F)(F)F)ccc42)C3)c1` [Compound I-21], the IC50 turned out to be 3.27 nM. The value for `CS(=O)(=O)CC(=O)Nc1c(-c2ccc(C3CC3)cn2)nn2c1C(=O)N[C@@]1(CCc3cc(OCC(F)(F)F)ccc31)C2` [Compound I-57] was 1.14 nM; that for `CS(=O)(=O)CC(=O)Nc1c(-c2ccc(F)c(F)c2)nn2c1C(=O)N[C@]1(CCc3cc(F)cc(F)c31)C2` [Compound I-148] was 10.6 nM; that for `Cc1cc(F)ccc1-c1nn2c(c1NC(=O)CS(C)(=O)=O)C(=O)N[C@@]1(CCc3cc(OCC(F)(F)F)ccc31)C2` [Compound I-35] was 32.2 nM. Take `CNS(=O)(=O)CC(=O)Nc1c(-c2ccc(C#N)cn2)nn2c1C(=O)N[C@@]1(CCc3cc(OCC(F)(F)F)ccc31)C2` [Compound I-16]: the IC50 turned out to be 1.44 nM. The value for `C[S@](=N)(=O)CC(=O)Nc1c(-c2ccc(F)c(Cl)c2)nn2c1C(=O)N[C@@]1(CCc3cc(OCC(F)(F)F)ccc31)C2` (single isomer, unassigned) [Compound I-107] was 1.19 nM; that for `COc1ccc(-c2nn3c(c2NC(=O)CS(C)(=O)=O)C(=O)N[C@@]2(CCc4cc(OCC(F)(F)F)ccc42)C3)cc1F` [Compound I-52] was 15.2 nM. The value for `CS(=O)(=O)CC(=O)Nc1c(-c2ccc(C(F)F)cc2)nn2c1C(=O)N[C@@]1(CCc3cc(F)cc(F)c31)C2` [Compound I-131] was 9.33 nM; that for `CCOc1ccc2c(c1)CC[C@@]21Cn2nc(CCC3CC3)c(NC(=O)CS(C)(=O)=O)c2C(=O)N1` [Compound I-111] was 7.61 nM; that for `CS(=O)(=O)CC(=O)Nc1c(CCC2CC2)nn2c1C(=O)NC1(CN(c3ccc(C(F)(F)F)cc3)C1)C2` [Compound I-64] was 1.26 nM. For the compound `CS(=O)(=O)CC(=O)Nc1c(-c2ccc(F)cc2)nn2c1C(=O)N[C@@]1(CCc3cc(F)cc(F)c31)C2` [Compound I-129], the IC50 was found to be 10 nM.

On to `CS(=O)(=O)CC(=O)Nc1c(-c2ccc(F)c(F)c2)nn2c1C(=O)N[C@@]1(CCOc3cc(OCC(F)(F)F)ccc31)C2` [Compound I-67], for which the IC50 came out at 0.671 nM. The value for `Cc1ccc(-c2nn3c(c2NC(=O)C2CS(=O)(=O)C2)C(=O)N[C@@]2(CCc4cc(OCC(F)(F)F)ccc42)C3)nc1` [Compound I-44] was 13.4 nM; that for `CCS(=O)(=O)CC(=O)Nc1c(-c2ccc(C)cn2)nn2c1C(=O)N[C@@]1(CCc3cc(OCC(F)(F)F)ccc31)C2` [Compound I-127] was 2.77 nM; that for `CS(=N)(=O)CC(=O)Nc1c(-c2ccc(F)c(F)c2)nn2c1C(=O)N[C@@]1(CCc3cc(OCC(F)(F)F)ccc31)C2` (stereo partly drawn) [Compound I-108] was 3.43 nM.

As for `Cc1ccc(-c2nn3c(c2NC(=O)CS(C)(=O)=O)C(=O)N[C@]2(CCc4cc(OCC(F)(F)F)ccc42)C3)cc1F` [Compound I-90], the IC50 amounted to 1.1 nM.

`CS(=O)(=O)CC(=O)Nc1c(CCC2CC2)nn2c1C(=O)N[C@@]1(CCOc3cc(OCC(F)(F)F)ccc31)C2` [Compound I-109]: the IC50 came to 1.18 nM.

With `CS(=O)(=O)CC(=O)Nc1c(-c2ccc(C(F)(F)F)cc2)nn2c1C(=O)N[C@@]1(CCc3cc(OCC(F)(F)F)ccc31)C2` [Compound I-25], the IC50 was 1.33 nM.

For `Cc1cc(-c2nn3c(c2NC(=O)CS(C)(=O)=O)C(=O)N[C@]2(CCc4cc(OCC(F)(F)F)ccc42)C3)ccc1F` [Compound I-88], the IC50 worked out at 1.17 nM. Turning to `CC(C)c1ccc(-c2nn3c(c2NC(=O)CS(C)(=O)=O)C(=O)N[C@@]2(CCc4cc(OCC(F)(F)F)ccc42)C3)cc1` [Compound I-49], the IC50 is 4.79 nM. The value for `Cc1cccc(-c2nn3c(c2NC(=O)CS(C)(=O)=O)C(=O)N[C@]2(CCc4cc(OCC(F)(F)F)ccc42)C3)c1` [Compound I-77] was 2.54 nM.

Consider `CS(=O)(=O)CC(=O)Nc1c(-c2ccc(OC(F)F)cc2)nn2c1C(=O)N[C@@]1(CCc3cc(OCC(F)(F)F)ccc31)C2` [Compound I-28], for which the IC50 is 3.89 nM. The result for `CS(=O)(=O)CC(=O)Nc1c(-c2ccc(C(F)F)cc2)nn2c1C(=O)N[C@@]1(CCc3cc(OCC(F)(F)F)ccc31)C2` [Compound I-24] reads 1.37 nM. Consider `CS(=O)(=O)CC(=O)Nc1c(-c2ccc(C3CC3)cn2)nn2c1C(=O)N[C@]1(CCc3cc(OCC(F)(F)F)ccc31)C2` [Compound I-56], for which the IC50 worked out at 1.03 nM. The result for `CS(=O)(=O)CC(=O)Nc1c(-c2ccc(C#N)cc2)nn2c1C(=O)N[C@]1(CCc3cc(OCC(F)(F)F)ccc31)C2` [Compound I-87] reads 2.55 nM.

As for `CCOc1ccc2c(c1)CC[C@]21Cn2nc(CCC3CC3)c(NC(=O)CS(C)(=O)=O)c2C(=O)N1` [Compound I-103], the IC50 amounted to 7.03 nM. The value for `C[S@](=N)(=O)CC(=O)Nc1c(-c2cc(F)c(F)c(F)c2)nn2c1C(=O)N[C@@]1(CCc3cc(OCC(F)(F)F)ccc31)C2` (single isomer, unassigned) [Compound I-105] was 1.71 nM; that for `CCOc1ccc2c(c1)CC[C@]21Cn2nc(-c3ccc(F)c(F)c3)c(NC(=O)CS(C)(=O)=O)c2C(=O)N1` [Compound I-117] was 4.83 nM; that for `CS(=O)(=O)CC(=O)Nc1c(-c2ccc(F)cc2)nn2c1C(=O)N[C@]1(CCOc3cc(OCC(F)(F)F)ccc31)C2` [Compound I-70] was 2.6 nM. On to `CS(=O)(=O)CC(=O)Nc1c(CCC2CC2)nn2c1C(=O)N[C@]1(CCc3cc(OCC(F)(F)F)ccc31)C2` [Compound I-94], for which the IC50 came out at 1.08 nM.

Consider `N#Cc1ccc(-c2nn3c(c2NC(=O)COC(F)(F)F)C(=O)N[C@@]2(CCc4cc(OCC(F)(F)F)ccc42)C3)nc1` [Compound I-17], for which the 50% inhibitory concentration (IC50) came out at 58 nM.

For `CS(=O)(=O)CC(=O)Nc1c(-c2ccc(S(C)(=O)=O)cc2)nn2c1C(=O)N[C@@]1(CCc3cc(OCC(F)(F)F)ccc31)C2` [Compound I-48], the IC50 amounted to 419 nM. As to `CCOc1ccc2c(c1)OCC[C@@]21Cn2nc(-c3ccc(F)c(F)c3)c(NC(=O)CS(C)(=O)=O)c2C(=O)N1` [Compound I-135], the IC50 was determined as 3.22 nM. The result for `CCOc1ccc2c(c1)OCC[C@]21Cn2nc(-c3ccc(F)cc3)c(NC(=O)CS(C)(=O)=O)c2C(=O)N1` [Compound I-132] reads 3.1 nM. Turning to `CS(=O)(=O)CC(=O)Nc1c(-c2ccc(F)cn2)nn2c1C(=O)N[C@@]1(CCc3cc(F)cc(F)c31)C2` [Compound I-121], the IC50 amounted to 6.02 nM.

Turning to `CS(=O)(=O)CC(=O)Nc1c(-c2ccc(Cl)cn2)nn2c1C(=O)N[C@@]1(CCc3cc(OCC(F)(F)F)ccc31)C2` [Compound I-60], the half-inhibitory concentration (IC50) stood at 0.527 nM. Turning to `CS(=O)(=O)CC(=O)Nc1c(-c2cc(F)c(F)c(F)c2)nn2c1C(=O)N[C@]1(CCc3cc(OCC(F)(F)F)ccc31)C2` [Compound I-92], the IC50 was determined as 0.585 nM.

For the compound `CS(=O)(=O)CC(=O)Nc1c(-c2ccc(F)c(F)c2)nn2c1C(=O)N[C@]1(CCc3cc(OCC(F)(F)F)ccc31)C2` [Compound I-89], the IC50 turned out to be 0.761 nM.

Turning to `Cc1ccc(-c2nn3c(c2NC(=O)CS(C)(=O)=O)C(=O)N[C@@]2(CCc4cc(OCC(F)(F)F)ccc42)C3)cc1F` [Compound I-34], the IC50 is 1.36 nM. Take `CS(=O)(=O)CC(=O)Nc1c(CCC2CC2)nn2c1C(=O)N[C@@]1(CCOc3cc(F)cc(F)c31)C2` [Compound I-120]: the IC50 was 2.57 nM. The value for `Cc1c(F)cc(-c2nn3c(c2NC(=O)CS(C)(=O)=O)C(=O)N[C@@]2(CCc4cc(OCC(F)(F)F)ccc42)C3)cc1F` [Compound I-53] was 1.75 nM; that for `CS(=O)(=O)CC(=O)Nc1c(-c2ccc(F)cn2)nn2c1C(=O)N[C@@]1(CCOc3cc(F)cc(F)c31)C2` [Compound I-119] was 2.98 nM; that for `CCCCCc1nn2c(c1NC(=O)CS(C)(=O)=O)C(=O)N[C@]1(CCOc3cc(OCC(F)(F)F)ccc31)C2` [Compound I-114] was 3.1 nM. Consider `C[S@@](=N)(=O)CC(=O)Nc1c(-c2cc(F)c(F)c(F)c2)nn2c1C(=O)N[C@@]1(CCc3cc(OCC(F)(F)F)ccc31)C2` (single isomer, unassigned) [Compound I-106], for which the IC50 was 4.95 nM. Turning to `COc1ccc(-c2nn3c(c2NC(=O)CS(C)(=O)=O)C(=O)N[C@]2(CCc4cc(OCC(F)(F)F)ccc42)C3)cc1F` [Compound I-100], the IC50 is 4.59 nM. The result for `Cc1ccc(-c2nn3c(c2NC(=O)CS(C)(=O)=O)C(=O)N[C@@]2(CCc4cc(OCCCC(F)(F)F)ccc42)C3)nc1` [Compound I-74] reads 1.06 nM; that for `CCOc1ccc2c(c1)OCC[C@@]21Cn2nc(-c3ccc(F)cc3)c(NC(=O)CS(C)(=O)=O)c2C(=O)N1` [Compound I-134], 4.49 nM; that for `CNS(=O)(=O)CC(=O)Nc1c(-c2ccc(C)cn2)nn2c1C(=O)N[C@]1(CCc3cc(OCC(F)(F)F)ccc31)C2` [Compound I-41], 1.04 nM.

One may read the IC50 as the midpoint of a concentration-inhibition curve.
